Test results published in patent US20090227606A1, “Methods for Preventing or Treating Acute and Chronic Pain” (priority 2006, published 2009).
Entries after “also recorded” stand apart in the source; their conditions may differ. Read-outs that look alike come from different tables or passages of the source.

Assays:
[1] = test system: GLT-1; details: Zelenaia et al. 2000, cited from earlier work; for effect on db-cAMP-dependent GLT-1 expression: db-cAMP-treated astrocytes; for GLT-1 induction in cultured astrocytes: Schlag et al. 1998
[2] = test system: primary cultured astrocytes; assay: Astrocyte morphology and process length, phase contrast microscopy; type: cell-based, rat
Experimental: Astrocyte cultures were prepared from the cortices of neonatal rats (1-3 days old) using the Worthington Papain Dissociation System (Worthington Biochemical Corporation, Lakewood, N.J.) according to the method of Huettner and Baughman (1986. J. Neurosci. 6:3044-3060). Briefly, cortices of neonatal rats were dissected, treated with papain (20 U/ml), dissociated by trituration and plated in 75 cm^2 flasks in Dulbecco's modified Eagle's medium (DMEM) supplemented with 10% charcoal-stripped fetal bovine serum (FBS), 1% GlutaMax and 1% penicillin/streptomycin (P/S, 100 U/ml penicillin, 100 μg/ml streptomycin, P/S). Cells were fed twice weekly until they reached confluence (Day in vitro, DIV 10-12) at which point they were mechanically shaken for 1 hr on an orbital shaker to remove any remaining oligodendrocytes and microglia. Subsequently, cultures were treated with trypsin for 30 minutes at 37° C. and re-plated into 6 or 12-well dishes at a density of about 3.0×10^4 cells/cm^2. Resultant cultures were greater than 95% astrocytic as determined by GFAP immunostaining.
(§1) After approximately 14 days (2 days after subplating into plates, DIV 14) astrocytes had formed a confluent monolayer. […] Phase contrast microscopy was then carried out in order to assess the morphology of cells after the various treatments. Length of astrocyte processes was quantified by measuring all processes in 2-3 phase contrast images/group by an independent observer, blinded to the treatment groups using Image J v1.34s (National Institutes of Health, Bethesda, Md.).

[3] = test system: GLAST; assay: Immunocytochemistry of cultured astrocytes, GLAST staining; type: cell-based, rat; details: treated astrocytes
Experimental: Primary astrocyte-enriched cultures were plated onto sterile 18 mm glass coverslips. After three washes in PBS, cells were permeabilized in 5% glacial acetic acid/95% ethanol (acid-alcohol) for 10 minutes. After washing, cells were incubated in a 1% normal goat serum for 30 minutes and then overnight at 4° C. in primary mouse anti-GFAP (1:500), rabbit anti-GLT-1 (1:500) or guinea pig anti-GLAST (1:2000). The following day, cells were washed and then incubated for 2 hours at room temperature with goat anti-mouse Alexa Fluor™-555 (Invitrogen Corporation, Carlsbad, Calif.) goat anti-guinea pig Alexa Fluor™-488 (Invitrogen Corporation, Carlsbad, Calif.) or goat anti-rabbit Alexa Fluor™-488 (Invitrogen Corporation, Carlsbad, Calif.; all at 1:250). Finally, cells were post-fixed in acid-alcohol and mounted with Vectashield (Vector Labs, Burlingame, Calif.) containing 4′,6-diamidino-2-phenylindole dihydrochloride hydrate (DAPI, Sigma Chemical Co., St Louis, Mo.), in order to visualize cell nuclei. The sections were examined with a fluorescence microscope, and images were captured with a Q-Fire cooled camera (Olympus, Melville, N.Y.). Confocal microscopy was also performed using a Zeiss LSM 510 Meta confocal microscope (Carl Zeiss AG, Oberkochen, Germany). Merged color images were processed using Adobe Photoshop 7.0 (Adobe Systems, San Jose, Calif.).

[4] = test system: GLT-1 mRNA; assay: Real Time RT-PCR of cultured astrocytes, GLT-1 mRNA; type: cell-based, rat; details: propentofylline 10, 100, 1000 μM; db-cAMP 250 μM; relative to GAPDH
Experimental: as §1
(§2) Total RNA was isolated from astrocyte cultures using the Qiagen RNeasy mini-kit (Qiagen Inc., Valencia, Calif.) according to the manufacturer's protocol for isolation of total RNA from animal cells. Reverse transcription (RT) was carried out using the high-capacity cDNA archive kit (Applied Biosystems, Foster City, Calif.) according to the vendor's protocol. Real-time RT-PCR reactions were carried out in a total reaction volume of 25 μL containing a final concentration of 1.5 U Platinum Taq DNA polymerase (Invitrogen Corporation, Carlsbad, Calif.); 20 mM Tris HCl (pH 8.4); 50 mM KCl; 3 mM MgCl2; 200 μM dGTP, dCTP, and dATP; 400 μM dUTP and 1 U of UDG (uracyl DNA glycosylase); 900 nM of forward and reverse primers; 300 nM Taqman probe; and 5 μL of cDNA (50 ng) from the RT step. The iCycler™ Multicolor Real-Time PCR detection system (Bio-Rad Laboratories, Hercules, Calif.) was used to quantify PCR product. The fluorescence and threshold values (CT) obtained were used to compare the relative amount of target mRNA in experimental groups to those of controls using the 2^−ΔΔC^T method (Livak, K. J. and T. D. Schmittgen. 2001. Methods 25:402-408). Each experiment was run twice and samples were run in duplicate. For each sample, the mean CT value for the control gene (GAPDH) was then subtracted from the mean CT value for the gene of interest (GLT-1, GLAST) to obtain a ΔCT value. The ΔCT values for the control group (untreated) were then averaged and subtracted from the ΔCT for the experimental groups to obtain the ΔΔCT. The relative fold change from control was then expressed by calculation of 2^−ΔΔC^T for each sample and the results are expressed as the group mean fold change±SEM.

[5] = test system: GLAST mRNA; assay: Real Time RT-PCR of cultured astrocytes, GLAST mRNA; type: cell-based, rat; details: propentofylline 10, 100, 1000 μM; db-cAMP 250 μM; relative to GAPDH
Experimental: as §1
as §2, with “The ΔCT values for the control group (untreated) were then averaged and subtracted from the ΔCT for the experimental groups to obtain the ΔΔCT.” left out

[6] = test system: GLAST; assay: Western blot of cultured astrocytes, GLAST protein; type: cell-based, rat; details: 3 or 7 days, normalized to β-actin
Experimental: as §1
Cells were scraped into PBS containing a protease inhibitor cocktail (1:1000, Sigma Chemical Co., St. Louis, Mo.) and then lysed by sonication in 5 one-second pulses. The samples were stored at −80° C. until use. Total protein was determined using the Lowry method (DC assay, Bio-Rad, Hercules, Calif.). Forty micrograms of protein (diluted in sample buffer and boiled) and standard protein markers were subjected to SDS/7.5% polyacrylamide gel electrophoresis and transferred to polyvinylidene difluoride (PVDF) membranes. Nonspecific binding was blocked by incubation with 5% milk/PBS-Tween at room temperature for 1 hour followed by incubation overnight at 4° C. with rabbit anti-GLT-1 (1:500) or guinea pig anti-GLAST (1:2500). The following day, blots were washed and incubated for 1 hour at room temperature with goat anti-rabbit HRP-conjugated secondary (1:3000) or goat anti-guinea pig HRP-conjugated secondary antibody (1:5000) and visualized with enhanced chemiluminescence (ECL). Images were obtained using the Typhoon Imaging System (Amersham-GE Healthcare, Piscataway, N.J.). Finally, blots were incubated for 15 minutes in stripping buffer and reprobed with a monoclonal mouse anti-β-actin antibody (1:10,000) as a loading control. Densitometric analysis was performed using ImageQuant 5.2 (Molecular Dynamics, GE Healthcare, Piscataway, N.J.).

[7] = test system: MIP-2 (CXCL2); assay: ELISA of MIP-2 release from cultured astrocytes; type: cell-based, rat; details: seven days, LPS 1 μg/ml; propentofylline 1000 μM; db-cAMP 250 μM
Experimental: as §1
(§3) Standard ELISA was performed for quantitative determination of MCP-1 and MIP-2 protein in cell culture supernatant. Assays were carried out according to the manufacturer's specifications (Biosource, Camarillo, Calif.) using the sandwich enzyme immunoassay procedure. Optical density at 450 nm was obtained using the MRX Revelations program (Dynex Technologies, Chantilly, Va.) and relative protein concentrations were determined by comparing samples to the standard curve generated.

[8] = test system: MCP-1 (CCL2); assay: ELISA of MCP-1 release from cultured astrocytes; type: cell-based, rat; details: seven days
Experimental: as §1, §3

[9] = test system: Na+-dependent glutamate transport; details: db-cAMP, Schlag et al. 1998; cited from earlier work

In the case of `CCCCCCOC(=O)[C@]1(O)C[C@@H]2O[C@@]1(C)n1c3ccccc3c3c4c(c5c6ccccc6n2c5c31)C(=O)NC4` [KT5720], the “effect on db-cAMP-dependent GLT-1 expression” value (from here on “effect”) [1] is given as “blocks induction of GLT-1 protein”.

In the case of `COc1cccc(-c2cc(=O)c3ccccc3o2)c1N` [PD98059], the “effect” value [1] is given as “partially attenuates”.

For `S=C(S)N1CCCC1` [PDTC], the “effect” value [1] is given as “inhibited db-cAMP-mediated increases in GLT-1 expression”.

In the case of `CCCC(=O)Nc1ncnc2c1ncn2[C@@H]1O[C@@H]2COP(=O)(O)O[C@H]2[C@H]1OC(=O)CCC` [db-cAMP, dibutyryl cyclic-adenosine-5′,3′-monophosphate], the astrocyte morphology ([2]; 3 days or 7 days of treatment, phase contrast microscopy) is reported as “extend fewer, longer processes”, the “length of astrocyte processes” value ([2]; 7 days, 250 μM db-cAMP vs. 1000 μM propentofylline) is reported as “significantly longer processes than propentofylline; also recorded: significantly longer processes than PPF” and the GLAST staining [3] is reported as “slightly increased GLAST staining”. The “GLT-1 mRNA level, in words” value [4] was “mimicked”, the “GLAST mRNA level, in words” value [5] was “mimicked” and the “GLAST protein level, in words” value [6] was “greater increase in GLAST than high dose propentofylline”. For the same compound, the “LPS-induced MIP-2 (CXCL2) release” value [7] was “had no effect on LPS-induced chemokine release”, the “LPS-induced MCP-1 (CCL2) release” value ([8]; LPS 1 μg/ml, propentofylline 1000 μM, db-cAMP 250 μM) was “had no effect on LPS-induced chemokine release” and the “basal MCP-1 (CCL2) release, treatment alone” value ([8]; without LPS) was “significantly increased MCP-1 (CCL2) above basal levels”. For the same compound, the “increase in glutamate transport activity” value [9] was 2 fold, the “sensitivity of increased glutamate uptake to DHK” value [9] was “DHK-insensitive” and the “GLT-1 induction in cultured astrocytes” value [1] was “induced high levels of GLT-1 protein expression”. The “GLT-1 induction in cultured astrocytes” value ([1]; listed as dibutyryl-cAMP) was “induce astrocytic maturation and GLT-1 induction”.
